Measurements taken from patent US20250228242A1 (priority 2021, published 2025).
Structures can show the parent of a compound that is named as a salt.

Test system: P. infestans
Test: whole plant or invertebrate
Format: in vivo
Conditions: Phytophthora infestans, in Solanum tuberosum, read-out: P. infestans % inhibition

SMILES | inhibition at 100 µM [%]
COc1ccc(-c2c[nH]c(-c3ccc(Cl)cc3)n2)cc1 [Compound 113, 2-(4-Chlorophenyl)-5-(4-methoxyphenyl)-1H-imidazole] | 90
Oc1cc(Cl)cc(-c2nc(-c3ccc(OC(F)(F)F)cc3)co2)c1 [Compound 132, 2-(3-Chloro-5-hydroxyphenyl)-4-[4-(trifluoromethoxy)phenyl]-1,3-oxazole] | 66
FC(F)(F)c1cccc(-c2nc(-c3cccc(Cl)c3)n[nH]2)c1 [Compound 161, 3-(3-Chlorophenyl)-5-[3-(trifluoromethyl)phenyl]-1H-1,2,4-triazole] | 50
CN1CCOc2cc(-c3cc(-c4cccc(Br)c4)[nH]n3)ccc21 [Compound 44, 7-[5-(3-Bromophenyl)-1H-pyrazol-3-yl]-4-methyl-3,4-dihydro-2H-1,4-benzoxazine] | 5
COc1ccc(-c2n[nH]c(-c3ccc(Br)cc3)n2)cc1 [Compound 164, 5-(4-Bromophenyl)-3-(4-methoxyphenyl)-1H-1,2,4-triazole] | 8
Cc1ccc(NC(=O)c2cccc(Cl)c2)cc1-c1nc(-c2ccc(F)cc2)n[nH]1 [Compound 102, 3-Chloro-N-{3-[3-(4-fluorophenyl)-1H-1,2,4-triazol-5-yl]-4-methylphenyl}benzamide] | 30
O=C(Nc1cccc(-c2c[nH]c(-c3ccc(F)cc3)n2)c1)c1ccccc1 [Compound 88, N-{3-[2-(4-fluorophenyl)-1H-imidazol-5-yl]phenyl}benzamide] | 28
Fc1cccc(-c2c[nH]c(-c3cccc(C(F)(F)F)c3)n2)c1 [Compound 151, 4-(3-Fluorophenyl)-2-[3-(trifluoromethyl)phenyl]-1H-imidazole] | 85
O=C(Nc1ccccc1)Nc1ccc(-c2nc(-c3cccc(C(F)(F)F)c3)no2)cc1 [Compound 94, 1-Phenyl-3-(4-{3-[3-(trifluoromethyl)phenyl]-1,2,4-oxadiazol-5-yl}phenyl)urea] | 9
Cc1ccc(-c2cc(-c3ccc(O)cc3)no2)cc1 [Compound 85, 3-(4-Hydroxyphenyl)-5-(4-methylphenyl)-1,2-oxazole] | 10
COc1cc(Cl)cc(-c2nc(-c3ccc(OC(F)(F)F)cc3)co2)c1 [Compound 130, 2-(3-Chloro-5-methoxyphenyl)-4-[4-(trifluoromethoxy)phenyl]-1,3-oxazole] | 9
COc1ccc(NC(=O)Nc2ccc(-c3cc(-c4cccc(F)c4)on3)cc2)cc1 [Compound 57, 1-{4-[5-(3-Fluorophenyl)-1,2-oxazol-3-yl]phenyl}-3-(4-methoxyphenyl)urea] | 8
COc1ccc(-c2noc(-c3ccccc3Br)n2)cc1 [Compound 68, 5-(2-Bromophenyl)-3-(4-methoxyphenyl)-1,2,4-oxadiazole] | 17
COc1cc(C(F)(F)F)ccc1-c1cnc(-c2cccc(C(=O)O)c2)o1 [Compound 122, 3-{5-[2-Methoxy-4-(trifluoromethyl)phenyl]-1,3-oxazol-2-yl}benzoic acid] | 36
CCc1ccc(-c2c[nH]c(-c3cccc(C(=O)N4CCN(C)CC4)c3)n2)cc1 [Compound 138, (4-Methylpiperazin-1-yl){3-[4-(4-ethylphenyl)-1H-imidazol-2-yl]phenyl}methanone] | 68
O=C(c1ccc(-c2n[nH]c(-c3ccc(Cl)cc3)n2)cc1)N1CCOCC1 [Compound 59, {4-[5-(4-Chlorophenyl)-1H-1,2,4-triazol-3-yl]phenyl}(morpholin-4-yl)methanone hydrochloride] | 87
c1cc2c(cc1-c1cnc(-c3ccc(N4CCOCC4)cc3)[nH]1)CCO2 [Compound 109, 4-{4-[5-(2,3-Dihydro-1-benzofuran-5-yl)-1H-imidazol-2-yl]phenyl}morpholine] | 11
COc1ccc(-c2c[nH]c(-c3ccc(Br)cc3)n2)cc1 [Compound 117, 2-(4-Bromophenyl)-5-(4-methoxyphenyl)-1H-imidazole] | 97
CC(=O)Nc1ccc(-c2cc(-c3ccccc3F)no2)cc1 [Compound 46, N-{4-[3-(2-Fluorophenyl)-isoxazol-5-yl]phenyl}acetamide] | 7
Oc1ccc(-c2nc(-c3ccc(C(F)(F)F)cc3)no2)cc1 [Compound 72, 5-(4-Hydroxyphenyl]-3-[4-(trifluoromethyl)phenyl]-1,2,4-oxadiazole] | 83
O=C(Nc1ccc(-c2cc(-c3cccc(OC(F)(F)F)c3)n[nH]2)cc1)C(F)(F)F [Compound 128, 2,2,2-Trifluoro-N-(4-{5-[3-(trifluoromethoxy)phenyl]-1H-pyrazol-3-yl}phenyl)acetamide] | 6
Cc1ccc(N)cc1-c1nc(-c2ccc(F)cc2)n[nH]1 [Compound 100, 5-(3-Amino-6-methylphenyl)-3-(4-fluorophenyl)-1H-1,2,4-triazole] | 51
O=C(O)c1ccc(-c2nc(-c3ccc(N4CCCC4)cc3)c[nH]2)cc1 [Compound 135, 4-{4-[4-(Pyrrolidin-1-yl)phenyl]-1H-imidazol-2-yl}benzoic acid] | 51

SMILES | inhibition at 100 µM [%]
Oc1ccc(-c2noc(-c3ccc(Cl)cc3)n2)cc1 [Compound 70, 5-(4-Chlorophenyl)-3-(4-hydroxyphenyl)-1,2,4-oxadiazole] | 33
COc1ccc(-c2nc(-c3ccc(C)c(C)c3)n[nH]2)cc1OC [Compound 160, 5-(3,4-Dimethoxyphenyl)-3-(3,4-dimethylphenyl)-1H-1,2,4-triazole] | 76
CCc1ccc(-c2cc(-c3ccc(N4CCC4)cc3)on2)cc1 [Compound 90, 5-[4-(Azetidin-1-yl)phenyl]-3-(4-ethylphenyl)-1,2-oxazole] | 13
CC(C)[C@H](N)C(=O)Nc1cccc(-c2cc(-c3cccc(OC(F)(F)F)c3)[nH]n2)c1 [Compound 145, (2S)-2-Amino-N-{3-[5-(3-trifluoromethoxyphenyl)-1H-pyrazol-3-yllphenyl}-3-methylbutanamide hydrochloride] | 97
Cc1ccc(NC(=O)[C@@H](N)Cc2ccccc2)cc1-c1nc(-c2ccc(F)cc2)n[nH]1 [Compound 103, (2S)-2-Amino-N-{3-[3-(4-fluorophenyl)-1H-1,2,4-triazol-5-yl]-4-methylphenyl}-3-phenylpropanamide hydrochloride] | 99
O=C(O)c1cccc(-c2cc(-c3ccc4c(c3)OCO4)[nH]n2)c1 [Compound 166, 3-[5-(1,3-Benzodioxol-5-yl)-1H-pyrazol-3-yl]benzoic acid] | 6
O=[N+]([O-])c1ccc(-c2nc(-c3cccc(C(F)(F)F)c3)no2)cc1 [Compound 73, 5-(4-Nitrophenyl)-3-[3-(trifluoromethyl)phenyl]-1,2,4-oxadiazole] | 2
Cc1ccc(-c2cnc(-c3ccc(C(=O)O)cc3)o2)cc1 [Compound 116, 4-[5-(4-Methylphenyl)-1,3-oxazol-2-yl]benzoic acid] | 72
CS(=O)(=O)Nc1cccc(-c2ncc(-c3ccc(Cl)c(Cl)c3)o2)c1 [Compound 119, N-{3-[5-(3,4-Dichlorophenyl)-1,3-oxazol-2-yl]phenyl} methanesulfonamide] | 15
Cc1ccc(-c2cc(-c3ccc(NC(=O)[C@@H](N)CCC(N)=O)cc3)[nH]n2)cc1 [Compound 162, (2S)-2-Amino-N1-{4-[3-(4-methylphenyl)-1H-pyrazol-5-yl]phenyl}pentanediamide hydrochloride] | 34
Brc1cccc(-c2cc(-c3ccc4c(c3)OCCO4)n[nH]2)c1 [Compound 50, 5-(3-Bromophenyl)-3-(2,3-dihydro-1,4-benzodioxin-6-yl)-1H-pyrazole] | 28
Oc1ccc(F)cc1-c1c[nH]c(-c2ccc(C(F)(F)F)cc2)n1 [Compound 81, 5-(2-Hydroxy-5-fluorophenyl)-2-[4-(trifluoromethyl)phenyl]-1H-imidazole] | 10
CCOC(=O)c1ccc(-c2ncc(-c3ccc(C)cc3)o2)cc1 [Compound 115, Ethyl 4-[5-(4-methylphenyl)-1,3-oxazol-2-yl]benzoate] | 12
Cc1ccc(-c2cc(-c3cccc(OC(F)(F)F)c3)no2)cc1C [Compound 53, 5-(3,4-Dimethylphenyl)-3-[3-(trifluoromethoxy)phenyl]-isoxazole] | 23
CCc1ccc(-c2c[nH]c(-c3ccc(NC(C)=O)cc3)n2)cc1 [Compound 155, N-{4-[4-(4-Ethylphenyl)-1H-imidazol-2-yl]phenyl}acetamide] | 16
COC(=O)Nc1ccc(-c2nc(-c3ccc(OC(F)(F)F)cc3)n[nH]2)cc1 [Compound 77, Methyl (4-{5-[4-(trifluoromethoxy)phenyl]-1H-1,2,4-triazol-3-yl}phenyl)carbamate] | 6
Cc1ccc([N+](=O)[O-])cc1-c1nc(-c2ccc(F)cc2)n[nH]1 [Compound 99, 3-(4-Fluorophenyl)-5-(2-methyl-5-nitrophenyl)-1H-1,2,4-triazole] | 64
CCOC(=O)c1cccc(-c2ncc(-c3ccc(C(F)(F)F)cc3OC)o2)c1 [Compound 121, Ethyl 3-{5-[2-methoxy-4-(trifluoromethyl)phenyl]-1,3-oxazol-2-yl}benzoate] | 28
Oc1ccc(-c2c[nH]c(-c3ccc(Cl)cc3)n2)cc1 [Compound 78, 2-(4-Chlorophenyl)-5-(4-hydroxyphenyl)-1H-imidazole] | 79
CC(C)OC(=O)Nc1ccc(-c2nc(-c3cccc(C(F)(F)F)c3)no2)cc1 [Compound 75, Propan-2-yl (4-{3-[3-(trifluoromethyl)phenyl]-1,2,4-oxadiazol-5-yl}phenyl)carbamate] | 31
FC(F)(F)Oc1ccc(-c2c[nH]c(-c3ccc(Br)cc3)n2)cc1 [Compound 84, 2-(4-Bromophenyl)-5-[4-(trifluoromethoxy)phenyl]-1H-imidazole] | 96
CC1(C)CCc2cc(-c3cc(-c4cccc(Br)c4)[nH]n3)ccc2O1 [Compound 97, 5-(3-Bromophenyl)-3-(2,2-dimethyl-3,4-dihydro-2H-chromen-6-yl)-1H-pyrazole] | 10
